Test results published in patent US20240174649A1, “CULLIN-RING E3 UBIQUITIN LIGASE 4 INHIBITOR COMPOUNDS AND METHODS OF THEIR USE” (ICAHN SCHOOL OF MEDICINE AT MOUNT SINAI, priority 2021, published 2024).
Like-named read-outs stand apart in the source and are kept apart here. Each block holds one compound with its values, some of them ahead of it.

Experiments:
[1] = target: T1, ROC1-CUL1 CTD (Homo sapiens (Human), UniProt Q13616); assay: FRET K48 di-Ub synthesis assay; format: biochemical; conditions: for E3 inhibition: up to 80 μM
T1 sequence (Q13616 411-776): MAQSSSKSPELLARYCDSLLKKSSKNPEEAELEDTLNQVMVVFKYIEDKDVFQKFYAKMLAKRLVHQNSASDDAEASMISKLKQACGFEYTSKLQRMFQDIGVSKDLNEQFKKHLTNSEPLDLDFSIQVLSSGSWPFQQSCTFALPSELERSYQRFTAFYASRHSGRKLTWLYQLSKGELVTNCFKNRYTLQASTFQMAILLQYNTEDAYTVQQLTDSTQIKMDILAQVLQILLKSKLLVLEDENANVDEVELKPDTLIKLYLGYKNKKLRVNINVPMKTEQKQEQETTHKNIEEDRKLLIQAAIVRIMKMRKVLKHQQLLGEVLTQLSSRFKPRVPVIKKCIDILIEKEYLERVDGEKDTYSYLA
T1 sequence (P62877 whole entry partner): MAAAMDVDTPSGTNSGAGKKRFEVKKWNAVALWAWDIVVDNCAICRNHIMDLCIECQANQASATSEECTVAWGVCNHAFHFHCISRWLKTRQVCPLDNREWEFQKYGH
Experimental: The high throughput screen (“HTS”) employed the FRET K48 di-Ub assay as established previously (Wu et al., “Suramin Inhibits Cullin-RING E3 Ubiquitin Ligases,” PNAS 113(14):E2011-2018 (2016), which is hereby incorporated by reference in its entirety) and was carried out at Memorial Sloan Kettering Cancer Center Core Screening Facility. For HTS, the assay was formatted using three reagent addition steps. Library compounds, stored in 10 mM stock plates (DMSO), were transferred into assay plates and each well contains a single compound at 100 μM in 1 μl 10% DMSO. The complete complement of proteins/enzymes (6.5 μl), containing Ub E1 (14 nM), E2 Cdc34 (124 nM), E3 ROC1-CUL1 CTD (0.2 μM), Ub C31-I555 (donor, 0.93 μM), and Ub C64-I647 (receptor, 1.62 μM), in the presence of 33 mM Tris-HCl (pH 7.4), 1.7 mM MgCl2, 0.33 mM DTT, and BSA (0.07 mg/ml), was added to each plate. The concentrations of all five proteins have been determined based on Km measurement as described previously (Wu et al., “Suramin Inhibits Cullin-RING E3 Ubiquitin Ligases,” PNAS 113(14):E2011-2018 (2016), which is hereby incorporated by reference in its entirety). To initiate ubiquitination, ATP (2.5 μl in 2.64 mM) was added and its final concentration was 0.66 mM. The concentration of ATP was set high to minimize identification of nucleotide analogues because the priority of the HTS is to find small molecule modulators specific for E3 ROC1-CUL1 CTD. In this setting, the concentration of compound and DMSO in a given well were 10 μM and 1%, respectively. After incubation at room temperature for 45 min, EDTA (30 mM) was added to terminate the reaction. The reaction was quantified based on the ratio of acceptor:donor fluorescence (excitation 515 nm; donor emission 570 nm; acceptor emission 670 nm) using a Victor high-throughput plate reader (Perkin Elmer).
(§1) The reaction mixture (15 μl) was assembled onto a 384-well microtiter plate. […] ATP (0.66 mM) was then added to the mix followed by a brief centrifugation to settle down the mixture. The resulting plate was incubated at 30° C. in the Synergy-H1 reader and the fluorescence signal was monitored. Ubiquitination was quantified based on the ratio of acceptor:donor fluorescence (excitation 515 nm; donor emission 570 nm, acceptor emission 670 nm).

[2] = target: T1, ROC1-CUL1 CTD; assay: Ligand binding by MST
Experimental: (§2) E3 ligase complex (˜2 nmol) was labeled with fluorescent dye using Monolith NT Protein Labeling Kit Red-NHS (Nanotemper) in the presence of 20 mM MES pH 6.0 and 150 mM NaCl. Excess dye was removed using the included gravity flow column and eluted in storage buffer containing 20 mM Tris-HCl, pH 7.4, 150 mM NaCl, and 10% glycerol. The fluorescent E3 complex (˜0.01-0.06 μM) was mixed with increasing amount of compound in a buffer (20 μl) that contains phosphate-buffered saline, 0.1% TWEEN-20 and 2% prionex. Following incubation at room temperature for 30 min, the reaction mixture loaded into premium coated capillaries and analyzed in the Monolith NT.115 machine (Nanotemper). Thermophoresis was recorded for each sample and binding curve was generated and Kd was calculated using the included software. For reactions where significant ligand specific fluorescence quenching occurred (verified by manufacturer's SDS Denaturation-test protocol), the initial fluorescence quenching data was used directly to calculate the binding curve and Kd.

[3] = target: E3 (CUL1) (Homo sapiens (Human), UniProt Q13616); assay: E3 (CUL1) inhibition (Table 1); format: biochemical
Chain of E3 (CUL1) (Q13616 whole entry): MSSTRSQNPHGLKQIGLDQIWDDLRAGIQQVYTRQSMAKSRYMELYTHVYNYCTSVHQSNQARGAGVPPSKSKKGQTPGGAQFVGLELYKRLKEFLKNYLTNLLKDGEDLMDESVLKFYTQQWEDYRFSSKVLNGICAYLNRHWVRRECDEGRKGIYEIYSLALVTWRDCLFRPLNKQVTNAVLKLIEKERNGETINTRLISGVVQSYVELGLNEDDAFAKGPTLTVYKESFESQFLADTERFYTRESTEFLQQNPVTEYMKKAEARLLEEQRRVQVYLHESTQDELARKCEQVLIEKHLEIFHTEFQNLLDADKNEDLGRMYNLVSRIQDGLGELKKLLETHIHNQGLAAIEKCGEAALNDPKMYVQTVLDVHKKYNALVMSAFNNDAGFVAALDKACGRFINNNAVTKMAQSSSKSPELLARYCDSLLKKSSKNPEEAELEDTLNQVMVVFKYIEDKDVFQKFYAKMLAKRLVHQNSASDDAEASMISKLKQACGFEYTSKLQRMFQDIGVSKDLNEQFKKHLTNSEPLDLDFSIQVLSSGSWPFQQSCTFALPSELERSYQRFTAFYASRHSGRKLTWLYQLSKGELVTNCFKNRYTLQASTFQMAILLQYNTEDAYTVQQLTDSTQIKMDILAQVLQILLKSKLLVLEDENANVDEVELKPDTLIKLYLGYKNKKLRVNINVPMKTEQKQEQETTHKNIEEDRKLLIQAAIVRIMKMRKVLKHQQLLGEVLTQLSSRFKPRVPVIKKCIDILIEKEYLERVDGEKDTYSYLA
Chain of E3 (CUL1) (P62877 whole entry partner): as the sequence (P62877 whole entry partner) above
Experimental: as §1

[4] = target: E3 (CUL4) (Homo sapiens (Human), UniProt Q13619); assay: E3 (CUL4) inhibition (Table 1); format: biochemical
Chain of E3 (CUL4) (Q13619 whole entry): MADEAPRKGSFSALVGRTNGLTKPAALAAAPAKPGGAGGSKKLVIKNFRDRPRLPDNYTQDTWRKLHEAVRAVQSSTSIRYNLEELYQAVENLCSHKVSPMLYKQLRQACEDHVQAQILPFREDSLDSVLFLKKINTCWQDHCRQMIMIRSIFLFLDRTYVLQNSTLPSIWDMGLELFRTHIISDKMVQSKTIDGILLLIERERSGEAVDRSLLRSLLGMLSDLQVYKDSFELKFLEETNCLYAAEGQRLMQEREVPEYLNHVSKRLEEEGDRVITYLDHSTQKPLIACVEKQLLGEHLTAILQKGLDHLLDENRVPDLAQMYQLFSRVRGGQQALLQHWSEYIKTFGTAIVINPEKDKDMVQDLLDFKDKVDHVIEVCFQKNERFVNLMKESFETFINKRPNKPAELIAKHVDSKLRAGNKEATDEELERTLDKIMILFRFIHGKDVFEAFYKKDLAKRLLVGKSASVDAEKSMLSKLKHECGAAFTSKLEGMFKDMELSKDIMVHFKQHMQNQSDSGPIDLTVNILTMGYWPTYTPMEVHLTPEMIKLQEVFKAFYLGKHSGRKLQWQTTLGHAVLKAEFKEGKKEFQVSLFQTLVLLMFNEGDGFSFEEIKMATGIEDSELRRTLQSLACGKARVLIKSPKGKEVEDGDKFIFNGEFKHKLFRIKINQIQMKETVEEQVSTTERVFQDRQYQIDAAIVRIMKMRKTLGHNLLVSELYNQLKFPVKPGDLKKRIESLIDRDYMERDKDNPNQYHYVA
Chain of E3 (CUL4) (P62877 whole entry partner): as the sequence (P62877 whole entry partner) above
Experimental: (§3) The reaction was incubated for 5 min at 37° C. […] The reaction was incubated for 5 min at room temperature. In the second step (chase), the completed Cdc34b-Ub thiol ester reaction mixture was combined with one third of the completed mono-ubiquitination mixture. The final volume was adjusted to 10 μl with a mix that contained 50 mM Tris-HCl (pH 7.4), 0.5 mM DTT, 0.1 mg/ml of BSA, 5 mM MgCl2, and 2 mM ATP. Compounds were added where indicated. The chase reaction was incubated for 10 min at 37° C. The reaction products were separated by 4-20% SDS-polyacrylamide gel electrophoresis. The reaction scheme was identical to the one described above for FIGS. 12A-B. […] The reaction products, separated by SDS-PAGE, were visualized and analyzed by phospho-imaging using Typhoon 9500 scanner.

[5] = target: ROC1-CUL4A (Homo sapiens (Human), UniProt Q13619); assay: 32P-Ub chain elongation by ROC1-CUL4A; format: biochemical; set-up: concentration or dose not given beside the values; conditions: relative to KH-4-43
Chain of ROC1-CUL4A (Q13619 39-759): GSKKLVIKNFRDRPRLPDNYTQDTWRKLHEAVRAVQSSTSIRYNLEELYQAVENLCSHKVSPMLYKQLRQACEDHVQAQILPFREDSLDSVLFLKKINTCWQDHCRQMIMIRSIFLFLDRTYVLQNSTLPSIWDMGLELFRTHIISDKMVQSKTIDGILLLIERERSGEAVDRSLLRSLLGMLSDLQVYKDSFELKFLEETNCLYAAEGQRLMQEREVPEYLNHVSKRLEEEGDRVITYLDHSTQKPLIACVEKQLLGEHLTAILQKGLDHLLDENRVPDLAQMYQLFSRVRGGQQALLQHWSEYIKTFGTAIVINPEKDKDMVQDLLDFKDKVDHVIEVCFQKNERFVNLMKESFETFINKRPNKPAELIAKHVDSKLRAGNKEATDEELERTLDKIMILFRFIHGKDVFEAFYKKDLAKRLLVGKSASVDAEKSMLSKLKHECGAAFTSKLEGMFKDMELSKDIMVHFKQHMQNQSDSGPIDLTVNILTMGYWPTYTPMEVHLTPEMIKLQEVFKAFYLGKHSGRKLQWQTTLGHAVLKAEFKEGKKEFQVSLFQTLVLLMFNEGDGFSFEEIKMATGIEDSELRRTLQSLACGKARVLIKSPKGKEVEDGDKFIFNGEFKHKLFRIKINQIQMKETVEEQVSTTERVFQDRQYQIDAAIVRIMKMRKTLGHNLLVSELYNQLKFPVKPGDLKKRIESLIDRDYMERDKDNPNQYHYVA
Chain of ROC1-CUL4A (P62877 15-108 partner): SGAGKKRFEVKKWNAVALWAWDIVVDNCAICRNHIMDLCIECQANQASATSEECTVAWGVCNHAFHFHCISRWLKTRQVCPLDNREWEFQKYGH
Experimental: as §3

[6] = target: ROC1-CUL4A (full length) (Homo sapiens (Human), UniProt Q13619); assay: Ligand binding by MST; conditions: for Kd: read-out: E3 binding ROC1-CUL4A Kd
Chain of ROC1-CUL4A (full length) (Q13619 39-759): as the sequence (Q13619 39-759) above
Chain of ROC1-CUL4A (full length) (P62877 15-108 partner): as the sequence (P62877 15-108 partner) above
Experimental: as §2

[7] = test system: cancer cells; assay: Apoptosis, Annexin V flow cytometry; format: cell-based; conditions: for induction of apoptosis: at 30 μM
Experimental: Cells (5×10^4) were seeded 24 hours before compound treatment. Compound was added to the culture media and cells were cultured with the compound for 48 hours. The treated cells were then transferred into 5 ml flow cytometry tubes and the well was washed once with PBS to collect any remaining cells. The cells were then pelleted at 500×g for 5 min with a Beckman CS-6KR centrifuge at 4° C. After removal of supernatant, the cells pellet was washed with Annexin V binding buffer (10 mM Hepes-NaOH, pH 7.4, 150 mM NaCl, 5 mM KCl, 1 mM MgCl2, and 1.8 mM CaCl2). Cells were pelleted once again and incubated in the dark with Annexin V-FITC (2 μg/ml) in binding buffer for 5 min then analyzed using LSRFortessa flow cytometer (BD).

[8] = test system: MV4-11 tumors; assay: AML MV4-11 subcutaneous xenograft; conditions: G5, 3 mg/kg, QD, PO
[9] = Table 9, read-out: IC50 (FRET CUL1 assay)
[10] = Table 9, read-out: E3 Binding Kd (MST with CUL1 CTD)
[11] = Table 5, read-out: E3 inhibition IC50
[12] = Table 5, MST, read-out: E3 binding Kd

Compound: COc1ccc2c(=O)c(Oc3ccccc3)c(C)oc2c1OC [#33-3, 7,8-dimethoxy-2-methyl-3-phenoxy-4H-chromen-4-one]
E3 inhibition IC50 ([1]; Table 5): No inhibition | E3 inhibition [1]: No inhibition | Kd [2, 12]: > 500 µM

Compound: O=c1c(Oc2ccccc2)c(C(F)(F)F)oc2c3c(ccc12)OCCO3 [#33-5, 8-phenoxy-9-(trifluoromethyl)-2,3-dihydro-7H-[1,4]dioxino[2,3-h]chromen-7-one]
E3 inhibition IC50 ([1]; Table 5): No inhibition | E3 inhibition [1]: No inhibition | Kd [2, 12]: 48 µM

Compound: O=c1c(Oc2ccccc2)c(C(F)(F)F)oc2c3c(ccc12)OCO3 [Compound 33-4, 7-phenoxy-8-(trifluoromethyl)-6H-[1,3]dioxolo[4,5-h]chromen-6-one]
IC50 [1, 11]: 80 µM | Kd [2, 12]: 19 µM

Compound: CCCCn1cc(-c2c(C(F)(F)F)oc3c(O)c(O)ccc3c2=O)cn1 [MM-007]
E3 CRL4 Relative Inhibition [5]: 2% | Kd [6]: 38 µM | EC50 ([7]; Table 6): 28 µM

Compound: CCCn1cc(-c2c(C(F)(F)F)oc3c(O)c(O)ccc3c2=O)cn1 [MM-008]
E3 CRL4 Relative Inhibition [5]: 0% | Kd [6]: 26.4 µM | EC50 ([7]; Table 6): 38 µM

Compound: CCn1cc(-c2c(C(F)(F)F)oc3c(O)c(O)ccc3c2=O)cn1 [MM-009]
E3 CRL4 Relative Inhibition [5]: 0% | Kd [6]: > 400 µM | EC50 ([7]; Table 6): 66 µM

Compound: CNC(=O)c1cc(Oc2ccc(NC(=O)Nc3ccc(Cl)c(C(F)(F)F)c3)cc2)ccn1 [Sorafenib, reference compound]
tumor inhibition value [8]: 46.02%

Compound: O=c1c(Oc2ccccc2)c(C(F)(F)F)oc2c(O)c(O)c(Br)cc12 [drawing 256]
IC50 [1, 9]: 3.1 µM | Kd [2, 10]: 1.89 ± 0.96 µM

The next lines start with results.

IC50 [1, 9]: 3.5 µM | Kd [2, 10]: 1.42 ± 0.26 µM
Compound: O=c1c(Oc2ccc(Br)cc2)c(C(F)(F)F)oc2c(O)c(O)ccc12

IC50 [1, 9]: 2.4 µM | Kd [2, 10]: 1.9 ± 0.28 µM
Compound: O=c1c(Oc2cccc(Br)c2)c(C(F)(F)F)oc2c(O)c(O)ccc12

IC50 [1, 9]: 2.7 µM | Kd [2, 10]: 1.95 ± 0.44 µM
Compound: O=c1c(Oc2ccccc2Br)c(C(F)(F)F)oc2c(O)c(O)ccc12

IC50 [1, 9]: 8.3 µM | Kd [2, 10]: 1.19 ± 0.36 µM
Compound: O=c1c(Oc2ccc(Br)cc2)c(C(F)(F)F)oc2c(O)c(O)c(Br)cc12

drop in IC50 relative to #33 [1]: 7 fold | IC50 [1, 11]: 8.9 µM | reduction of binding Kd relative to #33 [2]: 8 fold | Kd [2, 12]: 15 µM
Compound: Cc1oc2c(O)c(O)ccc2c(=O)c1Oc1ccccc1 [#33-2, 7,8-dihydroxy-2-methyl-3-phenoxy-4H-chromen-4-one]

E3 inhibition IC50 ([1]; Table 5): No inhibition | E3 inhibition [1]: No inhibition | reduction of binding Kd relative to #33 [2]: > 30 fold | Kd [2, 12]: 57 µM
Compound: O=c1c(Oc2ccccc2)c(C(F)(F)F)oc2cc(O)ccc12 [#33-7, 7-hydroxy-3-phenoxy-2-(trifluoromethyl)-4H-chromen-4-one]

E3 (CUL1) Inhibition EC50 [3]: Inactive | E3 (CUL4) Inhibition EC50 [4]: Inactive | E3 CRL4 Relative Inhibition [5]: 0% | E3 binding ROC1-CUL4A Kd [6]: No detectable binding | Apoptosis EC50 ([7]; Table 1): Inactive | Apoptosis EC50 ([7]; Table 6): Inactive
Compound: COc1ccc2c(=O)c(-c3cnn(-c4ccc(F)cc4)c3)c(C(F)(F)F)oc2c1OC [KH-3-141]
induction of apoptosis [7]: unable to induce any detectable level of apoptosis

E3 (CUL4) Inhibition EC50 [4]: Inactive | E3 CRL4 Relative Inhibition [5]: 13% | E3 binding ROC1-CUL4A Kd [6]: no detectable binding activity | Apoptosis EC50 ([7]; Table 1): Inactive | Apoptosis EC50 ([7]; Table 6): Inactive
Compound: COc1c(O)ccc2c(=O)c(-c3cnn(-c4ccccc4)c3)c(C(F)(F)F)oc12 [KH-4-119]
induction of apoptosis [7]: unable to induce any detectable level of apoptosis

IC50 [1, 9]: 3.3 µM
Compound: O=c1c(Oc2ccccc2)c(C(F)(F)F)oc2c(O)c(O)c(Br)cc12 [[drawing 256]]
